Here are results for 8 compounds from patent US12552783B2, “Modulators of proteolysis and associated methods of use” (Arvinas Operations, Inc., priority 2018, dated 2026).

Broadly, the Dmax is the greatest extent of degradation seen.

The target of the experiment is KRas (Homo sapiens, UniProt P01116, G12C). Briefly: KRas degradation in NCI-H2030 cells by Western blot, normalized to GAPDH (data of Table 14). Format: cell-based. Set-up: host or cells: NCI-H2030. The following applies: for Dmax: NCI-H2030. In outline: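 KRas/GAPDH band ratio vs DMSO lane gives % degradation; values under 25% were estimated visually, the rest quantitated. Cells are G12C homozygous, serum-free for 24 h, then dosed at 0.3/1/3 μM (0.1% DMSO). VHL-based compounds 24 h, others 72 h.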

As to `C=CC(=O)N1CCN(c2nc(NCCC(=O)N(C)CCNc3cccc4c3C(=O)N(C3CCC(=O)NC3=O)C4=O)nc3c(F)c(-c4c(O)cccc4F)c(Cl)cc23)CC1` [compound 108, 3-(((R)-4-(4-acryloylpiperazin-1-yl)-6-chloro-8-fluoro-7-(2-fluoro-6-hydroxyphenyl)quinazolin-2-yl)amino)-N-(2-((2-(2,6-dioxopiperidin-3-yl)-1,3-dioxoisoindolin-4-yl)amino)ethyl)-N-methylpropanamide], the Dmax was at most 35%. Also, the “Percent Degradation at Indicated Concentration (μM)” value (H2030, 0.3 μM) was “C (Percent Degradation: C ≤ 35)”. The “Percent Degradation at Indicated Concentration (μM)” value (H2030, 1 μM) is on record as “C (Percent Degradation: C ≤ 35)”. Also, the “Percent Degradation at Indicated Concentration (μM)” value (H2030, 3 μM) was “C (Percent Degradation: C ≤ 35)”.

Turning to `CCC(=O)N1CCN(c2nc(NCCC(=O)N(C)CCOCC(=O)N[C@H](C(=O)N3C[C@H](O)C[C@H]3C(=O)N[C@@H](C)c3ccc(-c4scnc4C)cc3)C(C)(C)C)nc3c(F)c(-c4cc(O)cc5ccccc45)c(Cl)cc23)CC1` [compound 186, (2S,4R)-1-((2S)-2-(2-(2-(3-((6-chloro-8-fluoro-7-(3-hydroxynaphthalen-1-yl)-4-(4-propionylpiperazin-1-yl)quinazolin-2-yl)amino)-N-methylpropanamido)ethoxy)acetamido)-3,3-dimethylbutanoyl)-4-hydroxy-N-((S)-1-(4-(4-methylthiazol-5-yl)phenyl)ethyl)pyrrolidine-2-carboxamide], for the setting “H2030 cells, 0.3 μM”, the “Percent Degradation at Indicated Concentration (μM): 0.3” value (“Percent Degradation … 0.3” for short) was “C (C ≤ 35)”. Besides, the “Percent Degradation at Indicated Concentration (μM): 1” value (“Percent Degradation … 1” below) (H2030 cells, 1 μM) is “C (C ≤ 35)”. For the same compound, the “Percent Degradation at Indicated Concentration (μM): 3” value (“Percent Degradation … (μM): 3” for short) (H2030 cells, 3 μM) is reported as “C (C ≤ 35)”. For the same compound, for the setting “H2030 cells”, the maximal degradation (Dmax) was at most 35%.

With `CCC(=O)N1CCN(c2nc(NCCC(=O)N(C)CCOCCOCCOCCOCCOc3cc(-c4scnc4C)ccc3CNC(=O)[C@@H]3C[C@@H](O)CN3C(=O)C(c3cc(C)no3)C(C)C)nc3c(F)c(-c4cc(O)cc5ccccc45)c(Cl)cc23)CC1` (stereo partly drawn) [compound 336, (2S,4R)-N-(2-((18-((6-chloro-8-fluoro-7-(3-hydroxynaphthalen-1-yl)-4-(4-propionylpiperazin-1-yl)quinazolin-2-yl)amino)-15-methyl-16-oxo-3,6,9,12-tetraoxa-15-azaoctadecyl)oxy)-4-(4-methylthiazol-5-yl)benzyl)-4-hydroxy-1-(3-methyl-2-(3-methylisoxazol-5-yl)butanoyl)pyrrolidine-2-carboxamide], the “Percent Degradation … 0.3” value (H2030 cells, 0.3 μM) was “C (C ≤ 35)”. For the same compound, the “Percent Degradation … 1” value (H2030 cells, 1 μM) is given as “C (C ≤ 35)”. The “Percent Degradation … (μM): 3” value (H2030 cells, 3 μM) is reported as “C (C ≤ 35)”. Also, the Dmax (H2030 cells) is at most 35%.

Turning to `C=CC(=O)N1CCN(c2nc(NCCC(=O)N(C)CCOCCOCCOCCOc3ccc4c(c3)CN(C3CCC(=O)NC3=O)C4=O)nc3c(F)c(-c4cc(O)cc5ccccc45)c(Cl)cc23)CC1` (stereo not shown) [compound 67, 3-((4-(4-acryloylpiperazin-1-yl)-6-chloro-8-fluoro-7-(3-hydroxynaphthalen-1-yl)quinazolin-2-yl)amino)-N-(2-(2-(2-(2-((2-(2,6-dioxopiperidin-3-yl)-1-oxoisoindolin-5-yl)oxy)ethoxy)ethoxy)ethoxy)ethyl)-N-methylpropanamide], the “Percent Degradation … 0.3” value (H2030 cells, 0.3 μM) is “C (C ≤ 35)”. The “Percent Degradation … 1” value (H2030 cells, 1 μM) is “C (C ≤ 35)”. For the same compound, the “Percent Degradation … (μM): 3” value (H2030 cells, 3 μM) is “C (C ≤ 35)”. The same compound displayed a Dmax (H2030 cells) of at most 35%.

With `Cc1ncsc1-c1ccc([C@H](C)NC(=O)[C@@H]2C[C@@H](O)CN2C(=O)[C@@H](NC(=O)COCCOCCOCCOCC/C=C/C(=O)N2CCN(c3ncnc4c(F)c(-c5cc(O)cc6ccccc56)c(Cl)cc34)CC2)C(C)(C)C)cc1` [compound 375, (2S,4R)-1-((2S,E)-2-(tert-butyl)-20-(4-(6-chloro-8-fluoro-7-(3-hydroxynaphthalen-1-yl)quinazolin-4-yl)piperazin-1-yl)-4,20-dioxo-6,9,12,15-tetraoxa-3-azaicos-18-enoyl)-4-hydroxy-N-((S)-1-(4-(4-methylthiazol-5-yl)phenyl)ethyl)pyrrolidine-2-carboxamide], the greatest degradation seen (Dmax) is at most 35%. Also, the “Percent Degradation at Indicated Concentration (μM)” value (H2030, 0.3 μM) is listed as “C (Percent Degradation: C ≤ 35)”. Besides, the “Percent Degradation at Indicated Concentration (μM)” value (H2030, 1 μM) is listed as “C (Percent Degradation: C ≤ 35)”. The “Percent Degradation at Indicated Concentration (μM)” value (H2030, 3 μM) is given as “C (Percent Degradation: C ≤ 35)”.

The compound `C=CC(=O)N1CCN(c2nc(NCCC(=O)N(C)CCOCCOc3ccc4c(c3)C(=O)N(C3CCC(=O)NC3=O)C4=O)nc3c(F)c(-c4c(O)cccc4F)c(Cl)cc23)CC1` [compound 69, 3-(((S)-4-(4-acryloylpiperazin-1-yl)-6-chloro-8-fluoro-7-(2-fluoro-6-hydroxyphenyl)quinazolin-2-yl)amino)-N-(2-(2-((2-(2,6-dioxopiperidin-3-yl)-1,3-dioxoisoindolin-5-yl)oxy)ethoxy)ethyl)-N-methylpropanamide] came in with a Dmax of at most 35%. Besides, where the note is “H2030, 0.3 μM”, the “Percent Degradation at Indicated Concentration (μM)” value is “C (Percent Degradation: C ≤ 35)”. Also, the “Percent Degradation at Indicated Concentration (μM)” value (H2030, 1 μM) is “C (Percent Degradation: C ≤ 35)”. For the same compound, the “Percent Degradation at Indicated Concentration (μM)” value (H2030, 3 μM) is given as “C (Percent Degradation: C ≤ 35)”.

For `CN[C@@H](C)C(=O)N[C@H](C(=O)N1CCC[C@H]1c1nc(-c2ccc(OCCOCCOCCOCCN(C)C(=O)CCNc3nc(N4CCN(C(C)=O)CC4)c4cc(Cl)c(-c5cc(O)cc6ccccc56)c(F)c4n3)c3ccccc23)cs1)C1CCCCC1` [compound 268, 3-((4-(4-acetylpiperazin-1-yl)-6-chloro-8-fluoro-7-(3-hydroxynaphthalen-1-yl)quinazolin-2-yl)amino)-N-(2-(2-(2-(2-((4-(2-((S)-1-((S)-2-cyclohexyl-2-((S)-2-(methylamino)propan-amido)acetyl)pyrrolidin-2-yl)thiazol-4-yl)naphthalen-1-yl)oxy)ethoxy)ethoxy)eth-oxy)ethyl)-N-methylpropanamide], the maximal degradation (Dmax) was at most 35%. The “Percent Degradation at Indicated Concentration (μM)” value (H2030, 0.3 μM) is given as “C (Percent Degradation: C ≤ 35)”. For the setting “H2030, 1 μM”, the “Percent Degradation at Indicated Concentration (μM)” value is “C (Percent Degradation: C ≤ 35)”. Besides, the “Percent Degradation at Indicated Concentration (μM)” value (H2030, 3 μM) is “C (Percent Degradation: C ≤ 35)”.

For the compound `Cc1ncsc1-c1ccc([C@H](C)NC(=O)[C@@H]2C[C@@H](O)CN2C(=O)[C@@H](NC(=O)COCCN(C)C(=O)CCNc2nc(N3CCN(C(=O)C(O)O)CC3)c3cc(Cl)c(-c4c(O)cccc4F)c(F)c3n2)C(C)(C)C)cc1` (atropisomer, axis not shown) [compound 235, (2S,4R)-1-((S)-2-(2-(2-(3-(((R)-6-chloro-4-(4-(2,2-dihydroxyacetyl)piperazin-1-yl)-8-fluoro-7-(2-fluoro-6-hydroxyphenyl)quinazolin-2-yl)amino)-N-methylpropanamido)ethoxy)acetamido)-3,3-dimethylbutanoyl)-4-hydroxy-N-((S)-1-(4-(4-methylthiazol-5-yl)phenyl)ethyl)pyrrolidine-2-carboxamide], the “Percent Degradation at Indicated Concentration (μM)” value is, setting by setting: (H2030 cells, 0.3 μM) “C (Percent Degradation: C ≤ 35)”; (H2030 cells, 1 μM) “C (Percent Degradation: C ≤ 35)”; (H2030 cells, 3 μM) “C (Percent Degradation: C ≤ 35)”.
